According to patent US20260200926A1, “TREM2 MODULATORS” (Muna Therapeutics ApS, priority 2022, published 2026):

Target: T1, Human TREM2 (Homo sapiens, UniProt Q9NZC2)
T1 construct: expressed in transfected cells
Assay: Human TREM2 activity: cellular phosphorylation of Syk (AlphaLISA SureFire Ultra p-SYK) in HEK293/DAP12+TREM2 stable cell line
Type: cell-based
Conditions: for Emax: HEK293, maximal response relative to reference agonist example 1B (remaining examples), read-out: Emax; for EC50: phospho-Syk AlphaLISA signal, HEK293/DAP12+TREM2 cells, concentration giving 50% of maximal response, read-out: EC50
Description: Human TREM2, in vitro Measurement of Triggering Receptor Expressed on Myeloid Cells 2 activity using cellular phosphorylation of Spleen Tyrosine Kinase (“Syk”) Assay
HEK-293 cells were co-transfected with separate plasmids encoding TREM2 and DAP12 to generate a stable cell line. After antibiotic selection, functional clone pool analysis and two successive limiting dilutions, the final clone “HEK293/DAP12+TREM2” underwent a qPCR analysis and a pharmacological validation.
TREM2 signaling through DAP12 was monitored in the HEK293/DAP12+TREM2 stable cell line by measuring the phosphorylation levels of the Syk kinase using the commercially available AlphaLISA SureFire Ultra p-SYK (Tyr525/526) Assay Kit (PerkinElmer #ALSU-PSYK), based on the Perkin Elmer AlphaScreen/AlphaLISA technology.
Compounds are transferred to the test plate and tested in full dose response, 8 concentrations in quadruplicate data points. Compound serial dilutions were performed at Cybi-Felix instrument in 100% DMSO and the dose response curves were assembled in automated fashion in 384MPT at Hamilton STARlet instrument. All the stock solutions were prepared at 20 mM in 100% DMSO. For compounds testing, the starting concentration was 100 μM, dilution steps 1:6. […] Finally, a 384MPT reformatted for all compounds at 8 concentrations, quadruplicates, was used as “mother to child” process with a CyBi®-Well dispenser in which 1 μL of each compound was moved into a destination plate pre-filled with 65.6 μL of EMEM cell culture medium (BIOWHITTAKER_cat.BE12-125F), thus obtaining 3× concentrated compounds working solution. In columns 1-2 and 23-24 the control wells were added. In particular, dose response curves of a reference control agonist were included in column 1 and 24 as reference control agonist (Reference control agonists used include Human TREM2 polyclonal Antibody AF1828: R&D Systems; Human TREM2 monoclonal Antibody MAB1828: R&D Systems). The dose response curves were tested starting at 30 μM, dilution step 1:6. Both “source” compound plate and “destination” compound plate were barcoded and a relationship between the two plates was thus generated.
HEK293/DAP12+TREM2 cells were cultured in EMEM medium supplemented with IX Penicillin/Streptomycin (BIOWHITTAKER_cat.DE17-602E), ULTRAGLUTAMINE I 200 mM, 10% Fetal Bovine Serum plus antibiotics referred to as “HEK293 Culture Medium”. The day before the experiment, cells were detached by gentle wash with DPBS, followed by 5 min incubation at 37° C. with Trypsin solution. Cells were then diluted in HEK293 Culture Medium without antibiotics, counted and seeded into 384-well poly-D-Lysine coated microplates black/clear bottom (GREINER 781946) at a density of 10,000 cells/well in 25 μL/well by the use of a MATRIX WellMate dispenser. Plates were placed into a humidified cell culture incubator at 37° C. with 5% CO2 until the experimental day. 20-24 hours after seeding mature medium was removed and replaced with 10 μL/well of EMEM cell medium supplemented with 0.1% Pluronic F-68 non-ionic surfactant (Thermofisher, 24040032), referred to as “Assay Buffer”, using the CyBi®-Well instrument. Then 5 μL/well of Assay Buffer containing 3× concentrated test compounds or the reference control agonist (in 0.5% final DMSO concentration) were added to the cells with the CyBi®-Well instrument. Cell plates were incubated for 30 min into a humidified cell culture incubator at 37° C. with 5% CO2·, then the medium was removed by manually discard. 20 μL/well of lysis buffer were dispensed using the CyBi®-Well instrument and plates were incubated for 10 min at room temperature on a plate shaker (350 rpm). Then, 10 μL/well of lysate were transferred to the Alpha plates. The CyBi®-Well instrument was used to dispense 5 μL/well of AlphaLISA Acceptor Bead Solution in IX Immunoassay buffer (Perkin Elmer AL000F). Then the plates were sealed with Heat sealing foil, shaked for 2 minutes (350 rpm) and incubated for 1 hour at room temperature.

T1 sequence (Q9NZC2 19-230): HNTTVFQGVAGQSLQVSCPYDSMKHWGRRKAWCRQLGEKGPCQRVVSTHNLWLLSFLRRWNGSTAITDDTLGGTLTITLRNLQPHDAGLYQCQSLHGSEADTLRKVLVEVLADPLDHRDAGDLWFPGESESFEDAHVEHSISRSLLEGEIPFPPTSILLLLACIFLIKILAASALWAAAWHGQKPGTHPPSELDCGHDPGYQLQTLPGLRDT
T1 sequence (O43914 22-113 partner): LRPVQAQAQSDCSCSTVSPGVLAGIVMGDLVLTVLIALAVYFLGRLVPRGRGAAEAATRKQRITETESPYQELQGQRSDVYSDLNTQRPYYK

Emax | EC50 | SMILES
< 75% | > 1000 nM | Cc1nc2c(-c3ccc(C(F)(F)F)nc3)nc(N3C[C@H](c4cnn(C)c4)OC(C)(C)C3)nc2c(=O)n1C (single isomer, unassigned) [Example 102B]
75 to 110% | 1 to 10 nM | Cn1cc([C@H]2CN(c3nc(-c4ccc(Cl)cc4F)c4nc(C(F)(F)F)n(C)c(=O)c4n3)CCO2)cn1 (single isomer, unassigned) [Example 103]
75 to 110% | 10 to 100 nM | Cc1nc2c(-c3ccc(Cl)cc3F)nc(N3CCO[C@H](c4cnn(C(F)(F)F)c4)C3)nc2c(=O)n1C (single isomer, unassigned) [Example 107A]
75 to 110% | 100 to 1000 nM | Cc1nc2c(-c3ccc(Cl)cc3F)nc(N3CCO[C@@H](c4cnn(C(F)(F)F)c4)C3)nc2c(=O)n1C (single isomer, unassigned) [Example 107B]
75 to 110% | 1 to 10 nM | Cc1nc2c(-c3ccc(Cl)cc3F)nc(N3C[C@@H](c4cnn(C)c4)OC4(CC4)C3)nc2c(=O)n1C (single isomer, unassigned) [Example 108A]
< 75% | 100 to 1000 nM | Cc1nc2c(-c3ccc(Cl)cc3F)nc(N3C[C@H](c4cnn(C)c4)OC4(CC4)C3)nc2c(=O)n1C (single isomer, unassigned) [Example 108B]
75 to 110% | 1 to 10 nM | Cc1nc2c(-c3ccc(Cl)cc3F)nc(N3C[C@@H](c4cnn(C)c4)OC4(CCC4)C3)nc2c(=O)n1C (single isomer, unassigned) [Example 109A]
< 75% | 100 to 1000 nM | Cc1nc2c(-c3ccc(Cl)cc3F)nc(N3C[C@H](c4cnn(C)c4)OC4(CCC4)C3)nc2c(=O)n1C (single isomer, unassigned) [Example 109B]
75 to 110% | 1 to 10 nM | Cc1nc2c(-c3ccc(Cl)cc3F)nc(N3C[C@@H](c4cnn(C5CC5)c4)OC(C)(C)C3)nc2c(=O)n1C (single isomer, unassigned) [Example 110A]
< 75% | 10 to 100 nM | Cc1nc2c(-c3ccc(Cl)cc3F)nc(N3C[C@H](c4cnn(C5CC5)c4)OC(C)(C)C3)nc2c(=O)n1C (single isomer, unassigned) [Example 110B]
75 to 110% | 10 to 100 nM | Cc1nc2c(-c3ccc(Cl)cc3F)nc([C@H]3C[C@@H](c4cnn(C)c4)OC(C)(C)C3)nc2c(=O)n1C (single isomer, unassigned) [Example 111A]
< 75% | 100 to 1000 nM | Cc1nc2c(-c3ccc(Cl)cc3F)nc([C@@H]3C[C@H](c4cnn(C)c4)OC(C)(C)C3)nc2c(=O)n1C (single isomer, unassigned) [Example 111B]
75 to 110% | 10 to 100 nM | Cc1nc2c(-c3ccc(Cl)cc3F)nc(N3C[C@@H](c4cnn(C)c4)OC(C)(C)C3)cc2c(=O)n1C (single isomer, unassigned) [Example 112A]
< 75% | 100 to 1000 nM | Cc1nc2c(-c3ccc(Cl)cc3F)nc(N3C[C@H](c4cnn(C)c4)OC(C)(C)C3)cc2c(=O)n1C (single isomer, unassigned) [Example 112B]
< 75% | 100 to 1000 nM | Cc1nc2c(-c3ccc(Cl)cc3F)nc([C@]34CCO[C@H](c5cnn(C6CC6)c5)[C@H]3C4)nc2c(=O)n1C (single isomer, unassigned) [Example 116A]
< 75% | 100 to 1000 nM | Cc1nc2c(-c3ccc(Cl)cc3F)nc([C@@]34CCO[C@@H](c5cnn(C6CC6)c5)[C@@H]3C4)nc2c(=O)n1C (single isomer, unassigned) [Example 116B]
75 to 110% | 10 to 100 nM | Cc1nc2c(-c3ccc(Cl)cc3F)cc(N3C[C@@H](c4cnn(C)c4)OC(C)(C)C3)cc2c(=O)n1C (single isomer, unassigned) [Example 117A]

Emax | EC50 | SMILES
< 75% | 100 to 1000 nM | Cc1nc2c(-c3ccc(Cl)cc3F)cc(N3C[C@H](c4cnn(C)c4)OC(C)(C)C3)cc2c(=O)n1C (single isomer, unassigned) [Example 117B]
75 to 110% | 10 to 100 nM | Cc1nc2c(-c3ccc(C(F)(F)F)cc3F)cc([C@@H]3CCO[C@H](c4cnn(C5CC5)c4)C3)cc2c(=O)n1C (single isomer, unassigned) [Example 118A]
< 75% | > 1000 nM | Cc1nc2c(-c3ccc(C(F)(F)F)cc3F)cc([C@H]3CCO[C@@H](c4cnn(C5CC5)c4)C3)cc2c(=O)n1C (single isomer, unassigned) [Example 118B]
< 75% | 100 to 1000 nM | Cc1nc2c(-c3ccc(Cl)cc3F)cc([C@@H]3CCO[C@H](c4cnn(C5CC5)c4)C3)cc2c(=O)n1C (single isomer, unassigned) [Example 119A]
75 to 110% | 1 to 10 nM | Cc1nc2c(-c3ccc(Cl)cc3F)cc([C@H]3CCO[C@@H](c4cnn(C5CC5)c4)C3)cc2c(=O)n1C (single isomer, unassigned) [Example 119B]
< 75% | > 1000 nM | Cc1nc2c(-c3ccc(F)cc3F)nc([C@@H]3CCO[C@H](c4cnn(C5CC5)c4)C3)nc2c(=O)n1C (single isomer, unassigned) [Example 120A]
< 75% | 100 to 1000 nM | Cc1nc2c(-c3ccc(F)cc3F)nc(N3C[C@@H](c4cnn(C)c4)OC(C)(C)C3)nc2c(=O)n1C (single isomer, unassigned) [Example 121A]
< 75% | > 1000 nM | Cc1nc2c(-c3ccc(F)cc3F)nc(N3C[C@H](c4cnn(C)c4)OC(C)(C)C3)nc2c(=O)n1C (single isomer, unassigned) [Example 121B]
75 to 110% | 1 to 10 nM | Cc1cc([C@@H]2CN(c3nc(-c4ccc(F)cc4F)c4nc(C)n(C)c(=O)c4n3)CCO2)ccn1 (single isomer, unassigned) [Example 122A]
< 75% | 100 to 1000 nM | Cc1cc([C@H]2CN(c3nc(-c4ccc(F)cc4F)c4nc(C)n(C)c(=O)c4n3)CCO2)ccn1 (single isomer, unassigned) [Example 122B]
> 110% | 1 to 10 nM | Cc1cc([C@@H]2CN(c3nc(-c4cc(F)c(F)cc4F)c4nc(C)n(C)c(=O)c4n3)CCO2)ccn1 (single isomer, unassigned) [Example 123A]
75 to 110% | 10 to 100 nM | Cc1cc([C@H]2CN(c3nc(-c4cc(F)c(F)cc4F)c4nc(C)n(C)c(=O)c4n3)CCO2)ccn1 (single isomer, unassigned) [Example 123B]
75 to 110% | 10 to 100 nM | Cc1cc([C@@H]2CN(c3nc(-c4ccc(C(F)(F)F)cc4F)c4nc(C)n(C)c(=O)c4n3)CC(C)(C)O2)ccn1 (single isomer, unassigned) [Example 124A]
75 to 110% | 1 to 10 nM | Cc1cc([C@H]2CN(c3nc(-c4ccc(C(F)(F)F)cc4F)c4nc(C)n(C)c(=O)c4n3)CC(C)(C)O2)ccn1 (single isomer, unassigned) [Example 124B]
75 to 110% | 10 to 100 nM | Cc1nc2c(-c3ccc(Cl)cc3F)nc(N3CCO[C@@H](c4cnn(C)c4)C3)cc2c(=O)n1C (single isomer, unassigned) [Example 125A]
< 75% | 10 to 100 nM | Cc1nc2c(-c3ccc(Cl)cc3F)nc(N3CCO[C@H](c4cnn(C)c4)C3)cc2c(=O)n1C (single isomer, unassigned) [Example 125B]
75 to 110% | 1 to 10 nM | Cc1nc2c(-c3ccc(C(F)(F)F)cc3F)nc(N3CCO[C@@H](c4cnn(C)c4)C3)cc2c(=O)n1C (single isomer, unassigned) [Example 126A]
